Results: US20240279220A1, “INDOLE COMPOUNDS AND METHODS OF USE” (Genzyme Corporation, priority 2021, published 2024)

Test system: NBD1/3D
Assay: Aggregation analysis using differential static light scattering (DSLS), NBD1 thermal stability
Format: binding, Human
Details: ΔTagg versus DMSO control; compound at 100 μM
Summary of the method: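 Thermal stabilisation reported as ΔTagg, i.e. aggregation temperature relative to averaged DMSO wells. Tagg came from the inflection of differential static light scattering imaged 25–70 °C while NBD1 (0.2 mg/ml, Tris pH 7.6 buffer containing ATP, MgCl2, DTT, glycerol) was ramped 1 °C/min.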

Row | SMILES | DSLS NBD1/3D Human Stability delta-T (° C.) @ 100 (μM)
1 | CS(=O)(=O)c1c(Oc2ccc(F)c(-c3ncc(C4(c5cccc(CCC(=O)O)c5)CC(F)(F)C4)[nH]3)c2)c(F)cc2[nH]ccc12 [Example 78, 3-(3-(3,3-Difluoro-1-(2-(2-fluoro-5-((6-fluoro-4-(methylsulfonyl)-1H-indol-5-yl)oxy)phenyl)-1H-imidazol-5-yl)cyclobutyl)phenyl)propanoic acid] | A (A: T ≥ 10° C.)
2 | CS(=O)(=O)c1c(Oc2ccc(F)c(-c3nc(C4(c5cccc(CCC(=O)O)c5)CC(F)(F)C4)cs3)c2)c(F)cc2[nH]ccc12 [Example 79, 3-(3-(3,3-Difluoro-1-(2-(2-fluoro-5-((6-fluoro-4-(methylsulfonyl)-1H-indol-5-yl)oxy)phenyl)thiazol-4-yl)cyclobutyl)phenyl)propanoic acid] | B (B: 5-10° C.)
3 | CS(=O)(=O)c1c(Oc2ccc(F)c(-c3nc(C4(c5cccc(CCC(=O)O)c5)CC4)co3)c2)c(F)cc2[nH]ccc12 [Example 81, 3-(3-(1-(2-(2-Fluoro-5-((6-fluoro-4-(methylsulfonyl)-1H-indol-5-yl)oxy)phenyl)oxazol-4-yl)cyclopropyl)phenyl)propanoic acid] | B (B: 5-10° C.)
4 | O=C(O)CCc1cccc(C2(c3cnc(-c4cc(Oc5c(F)cc6[nH]ccc6c5SC(F)(F)F)ccc4F)[nH]3)CCOCC2)c1 [Example 82, 3-(3-(4-(2-(2-Fluoro-5-((6-fluoro-4-((trifluoromethyl)thio)-1H-indol-5-yl)oxy)phenyl)-1H-imidazol-5-yl)tetrahydro-2H-pyran-4-yl)phenyl)propanoic acid] | B (B: 5-10° C.)
5 | O=C(O)CCc1cccc(C(O)c2cnc(-c3cccc(Oc4c(F)cc5[nH]ccc5c4-c4nccs4)c3)[nH]2)c1 (stereo not drawn) [Example 87, 3-(3-((2-(3-((6-Fluoro-4-(thiazol-2-yl)-1H-indol-5-yl)oxy)phenyl)-1H-imidazol-5-yl)(hydroxy)methyl)phenyl)propanoic acid] | B (B: 5-10° C.)
6 | CC(O)(c1cccc(CCC(=O)O)c1)c1csc(-c2cc(Oc3c(F)cc4[nH]ccc4c3S(C)(=O)=O)ccc2F)n1 (stereo not drawn) [Example 88, 3-(3-(1-(2-(2-Fluoro-5-((6-fluoro-4-(methylsulfonyl)-1H-indol-5-yl)oxy)phenyl)thiazol-4-yl)-1-hydroxyethyl)phenyl)propanoic acid] | B (B: 5-10° C.)
7 | Cc1c(Oc2ccc(F)c(-c3nc(Cc4csc(CCC(=O)O)n4)c[nH]3)c2)c(F)cc2[nH]ccc12 [Example 89, 3-(4-((2-(2-Fluoro-5-((6-fluoro-4-methyl-1H-indol-5-yl)oxy)phenyl)-1H-imidazol-4-yl)methyl)thiazol-2-yl)propanoic acid] | B (B: 5-10° C.)
8 | Cc1c(Oc2ccc(F)c(-c3ncc(Cc4cccc(CCC(=O)O)n4)[nH]3)c2)c(F)cc2[nH]ccc12 [Example 90, 3-(6-((2-(2-fluoro-5-((6-fluoro-4-methyl-1H-indol-5-yl)oxy)phenyl)-1H-imidazol-5-yl)methyl)pyridin-2-yl)propanoic acid] | B (B: 5-10° C.)
9 | Cc1c(Oc2ccc(F)c(-c3ncc(Cc4cccc(CC(=O)O)n4)[nH]3)c2)c(F)cc2[nH]ccc12 [Example 91, 2-(6-((2-(2-fluoro-5-((6-fluoro-4-methyl-1H-indol-5-yl)oxy)phenyl)-1H-imidazol-5-yl)methyl)pyridin-2-yl)acetic acid] | B (B: 5-10° C.)
10 | CP(C)(=O)c1c(Oc2cccc(-c3nc(Cc4cccc(CCC(=O)O)c4)cs3)c2)c(F)cc2[nH]ccc12 [Example 92, 3-(3-((2-(3-((4-(Dimethylphosphoryl)-6-fluoro-1H-indol-5-yl)oxy)phenyl)thiazol-4-__yl)methy)phenyl)propanoic acid] | B (B: 5-10° C.)
11 | CS(=O)(=O)c1c(Oc2ccc(F)c(-c3nc(Cc4cccc(CCC(=O)O)c4)cs3)c2)c(F)cc2[nH]ccc12 [Example 93, 3-(3-((2-(2-fluoro-5-((6-fluoro-4-(methylsulfonyl)-1H-indol-5-yl)oxy)phenyl)thiazol-4-yl)methyl)phenyl)propanoic acid] | B (B: 5-10° C.)
12 | O=C(O)CCc1cccc(C2(c3csc(-c4cc(Oc5c(F)cc6[nH]ccc6c5F)ccc4F)n3)CC(F)(F)C2)c1 [Example 94, 3-(3-(1-(2-(5-((4,6-difluoro-1H-indol-5-yl)oxy)-2-fluorophenyl)thiazol-4-yl)-3,3-difluorocyclobutyl)phenyl)propanoic acid] | B (B: 5-10° C.)
13 | O=C(O)CCc1cccc(C2(c3csc(-c4cccc(Oc5c(F)cc6[nH]ccc6c5F)c4)n3)CCOCC2)c1 [Example 95, 3-(3-(4-(2-(3-((4,6-difluoro-1H-indol-5-yl)oxy)phenyl)thiazol-4-yl)tetrahydro-2H-pyran-4-yl)phenyl)propanoic acid] | B (B: 5-10° C.)
14 | CC(O)(c1cccc(CCC(=O)O)c1)c1cnc(-c2cc(Oc3c(F)cc4[nH]ccc4c3P(C)(C)=O)ccc2F)[nH]1 (stereo not drawn) [Example 96, 3-(3-(1-(2-(5-((4-(Dimethylphosphoryl)-6-fluoro-1H-indol-5-yl)oxy)-2-fluorophenyl)-1H-imidazol-5-yl)-1-hydroxyethyl)phenyl)propanoic acid] | B (B: 5-10° C.)
15 | CC(O)(c1cccc(CCC(=O)O)c1)c1csc(-c2cccc(Oc3c(F)cc4[nH]ccc4c3P(C)(C)=O)c2)n1 (stereo not drawn) [Example 98, 3-(3-(1-(2-(3-((4-(Dimethylphosphoryl)-6-fluoro-1H-indol-5-yl)oxy)phenyl)thiazol-4-yl)-1-hydroxyethyl)phenyl)propanoic acid] | B (B: 5-10° C.)
16 | O=C(O)CCc1cccc(Cc2csc(-c3cccc(Oc4ccc5[nH]ccc5c4CO)c3)n2)c1 [Example 99, 3-(3-((2-(3-((4-(Hydroxymethyl)-1H-indol-5-yl)oxy)phenyl)thiazol-4-yl)methyl)phenyl)propanoic acid] | B (B: 5-10° C.)
17 | O=C(O)CCc1cccc(Cc2cnc(-c3cc(Oc4c(F)cc5[nH]ccc5c4F)ccc3F)[nH]2)c1F [Example 100, 3-(3-((2-(5-((4,6-Difluoro-1H-indol-5-yl)oxy)-2-fluorophenyl)-1H-imidazol-5-yl)methyl)-2-fluorophenyl)propanoic acid] | B (B: 5-10° C.)
18 | COC(=O)CCc1cccc(Cc2c[nH]c(-c3cc(Oc4c(F)cc5[nH]ccc5c4F)ccc3F)n2)c1 [Example 101, methyl 3-(3-((2-(5-((4,6-difluoro-1H-indol-5-yl)oxy)-2-fluorophenyl)-1H-imidazol-4-yl)methyl)phenyl)propanoate] | C (C: ≤5° C.)
19 | O=C(O)CCc1cccc(Cc2cnc(-c3cccc(Oc4c(F)cc5[nH]ccc5c4SC(F)(F)F)c3)[nH]2)c1 [Example 102, 3-(3-((2-(3-((6-fluoro-4-((trifluoromethyl)thio)-1H-indol-5-yl)oxy)phenyl)-1H-imidazol-5-yl)methyl)phenyl)propanoic acid] | B (B: 5-10° C.)
20 | O=C(O)CCc1ccc(F)c(Cc2cnc(-c3cc(Oc4c(F)cc5[nH]ccc5c4F)ccc3F)[nH]2)c1 [Example 103, 3-(3-((2-(5-((4,6-difluoro-1H-indol-5-yl)oxy)-2-fluorophenyl)-1H-imidazol-5-yl)methyl)-4-fluorophenyl)propanoic acid] | B (B: 5-10° C.)
21 | O=C(O)CCc1cccc(Cc2cnc(-c3cc(Oc4ccc5[nH]ccc5c4C(F)(F)F)ccc3F)[nH]2)c1 [Example 104, 3-(3-((2-(2-fluoro-5-((4-(trifluoromethyl)-1H-indol-5-yl)oxy)phenyl)-1H-imidazol-5-yl)methyl)phenyl)propanoic acid] | B (B: 5-10° C.)
22 | Cc1c(Oc2ccc(F)c(-c3ncc(Cc4cc(F)cc(CCC(=O)O)c4)[nH]3)c2)c(F)c(F)c2[nH]ccc12 [Example 105, 3-(3-((2-(5-((6,7-difluoro-4-methyl-1H-indol-5-yl)oxy)-2-fluorophenyl)-1H-imidazol-5-yl)methyl)-5-fluorophenyl)propanoic acid] | B (B: 5-10° C.)
23 | Cc1c(Oc2ccc(F)c(-c3ncc(Cc4cc(F)cc(CCC(=O)O)c4)[nH]3)c2)ccc2[nH]ccc12 [Example 106, 3-(3-fluoro-5-((2-(2-fluoro-5-((4-methyl-1H-indol-5-yl)oxy)phenyl)-1H-imidazol-5-yl)methyl)phenyl)propanoic acid] | B (B: 5-10° C.)
24 | O=C(O)CCc1cccc(Cc2cnc(-c3cc(Oc4c(F)cc5[nH]ccc5c4Cl)ccc3F)[nH]2)c1 [Example 107, 3-(3-((2-(5-((4-chloro-6-fluoro-1H-indol-5-yl)oxy)-2-fluorophenyl)-1H-imidazol-5-yl)methyl)phenyl)propanoic acid] | B (B: 5-10° C.)
25 | Cc1c(Oc2ccc(F)c(-c3ncc(Cc4cc(F)cc(CCC(=O)O)c4)[nH]3)c2)c(F)cc2[nH]ccc12 [Example 108, 3-(3-fluoro-5-((2-(2-fluoro-5-((6-fluoro-4-methyl-1H-indol-5-yl)oxy)phenyl)-1H-imidazol-5-yl)methyl)phenyl)propanoic acid] | B (B: 5-10° C.)
26 | Cc1c(Oc2ccc(F)c(-c3nc(Cc4cccc(CCC(=O)O)c4)c[nH]3)c2)ccc2[nH]ccc12 [Example 109, 3-(3-((2-(2-fluoro-5-((4-methyl-1H-indol-5-yl)oxy)phenyl)-1H-imidazol-4-yl)methyl)phenyl)propanoic acid] | B (B: 5-10° C.)
27 | O=C(O)CCc1cccc(Cc2cnc(-c3cc(Oc4c(F)cc5[nH]ccc5c4F)ccc3F)[nH]2)c1Cl [Example 110, 3-(2-chloro-3-((2-(5-((4,6-difluoro-1H-indol-5-yl)oxy)-2-fluorophenyl)-1H-imidazol-5-yl)methyl)phenyl)propanoic acid] | B (B: 5-10° C.)
